Earlier results in patent US20220056157A1, “PROCESS FOR FRACTIONATING AN ESTERIFIED CELLULOSE ETHER” (DOW GLOBAL TECHNOLOGIES LLC, priority 2015, published 2022).
Values after ≈ are worked out from the molar mass of the structure shown.

CCOC(=O)N1c2ccc(C(F)(F)F)cc2[C@@H](N(Cc2cc(C(F)(F)F)cc(C(F)(F)F)c2)C(=O)OC)C[C@H]1CC [Torcetrapib]
water solubility: 0.13 ng/mL (≈ 0.216 nM)
